The subject of assay [1] is inflammasomes. The assay is described as follows: Inflammasome activation: IL-1β production in THP-1 cells with or without LPS priming, cathepsin B inhibitor or caspase-1 inhibitor. The assay is classed as cell-based, human. Here is the method:
THP-1 cells were suspended at 1×10^6 cells/mL in RPMI1640 medium containing 1 μg/mL LPS and 10% FBS, and incubated in a CO2 incubator for 3 hours for cell priming. The cell suspension was centrifugated, the cells were resuspended at 1×10^6 cells/mL in RPMI1640 medium containing 10% FBS, and the cell suspension was added to a 96-well plate at 100 μL/well. The cathepsin B inhibitor Ca-074-Me (final concentration: 10 μM), the caspase-1 inhibitor Z-YVAD-FMK (final concentration: 10 μM) or the medium was added to the wells. After that, OSK-1 or the medium was added to the wells, and the cells were cultured in a CO2 incubator. After 16 hours, the culture supernatant was harvested, and the cytokine concentrations in the supernatant were measured by ELISA.

The subject of assay [2] is C57/BL6 mice. The assay is described as follows: Adjuvant effect in mice (anti-Ang II antibody titer after Ang II-KLH vaccine). Type of assay: in vivo. To be noted: Ang II-KLH 2 μg/animal + OSK-1 100 μg/animal intracutaneously 3 times at 2-week intervals. Here is the method: For the Freund's adjuvant group, complete Freund's adjuvant was used at the first administration, and incomplete Freund's adjuvant was used at the second and third administration. Blood was drawn before the first administration and 2, 4, 6 and 8 weeks after the first administration, and the anti-Ang II antibody titer was measured.
The antibody titer was measured in the same manner as in Example 7.

Assay [3] concerns LPS-primed RAW 264.7 cells. The assay is described as follows: Cytokine production in LPS-primed RAW 264.7 cells (ELISA). Type of assay: cell-based, mouse. Conditions: about 16 hours. Here is the method:
RAW 264.7 cells were suspended at 1×10^6 cells/mL in DMEM medium containing 50 ng/mL LPS and 10% FBS, and incubated in a CO2 incubator for 3 hours for cell priming. The cell suspension was centrifugated, the cells were resuspended at 1×10^6 cells/mL in DMEM medium containing 10% FBS, and the cell suspension was added to a 24-well plate at 500 μL/well. An OSK-1 solution was prepared at a 2-fold higher concentration than the final concentration in DMEM medium containing 10% FBS and added to the plate at 500 μL/well. After about 16 hours, the culture supernatant was harvested, and the cytokine concentrations in the supernatant were measured by ELISA.
A general note: ELISA stands for enzyme-linked immunosorbent assay.

In assay [4] the test system is C3H/HeN mice. The assay is described as follows: Hair-growth effect in shaved mice. The assay is classed as in vivo. Here is the method:
The dorsal skin of 8-week-old male C3H/HeN mice in the resting phase of the hair cycle was shaved using a hair clipper and a shaver with caution to avoid damage to the skin. The shaved area was 2×4 cm. To the shaved area, 100 μL of a 0.02% (w/v), 0.1% (w/v) or 0.5% (w/v) OSK-1 solution was applied once daily for 14 days starting from 3 days after the shaving. For the control group, physiological saline was applied, and for the positive control group, 3% (w/v) minoxidil was applied. The day of shaving was designated as Day 0. On Day 3, Day 7, Day 10, Day 14 and Day 17, the percentage of the area of hair regrowth relative to the entire shaved area in each mouse was scored according to the following criteria: 0% was defined as score 0, 20% or less was defined as score 1, 40% or less was defined as score 2, 60% or less was defined as score 3, 80% or less was defined as score 4, and 100% or less was defined as score 5. In addition, 10 strands of newly grown hair in the shaved area of each mouse were pulled out on Day 17, the length of each strand of newly grown hair was measured under a stereomicroscope, and the measured lengths were summed as the hair length (mm) of each animal.

Assay [5] has as its system THP-1 cells. The experiment in a line: CD86 and CD54 expression in THP-1 cells (flow cytometry, RFI). Type of assay: cell-based, human. To be noted: overnight culture, relative fluorescence intensity. Here is the method:
THP-1 cells were seeded at a density of 2.0×10^5 cells/mL in 50 mL of RPMI1640 medium containing 10% FBS and 0.05 mM mercaptoethanol in a 75-cm^2 flask, and precultured for 48 hours.
The precultured THP-1 cells were harvested by centrifugation and suspended at 2.0×10^6 cells/mL in RPMI1640 medium containing 10% FBS and 0.05 mM mercaptoethanol, and the cell suspension was added to a 24-well plate at 500 μL/well. Test peptides were separately dissolved in the same medium as above, and 500 μL of each of the solutions was added to separate wells containing the cell suspension.
After overnight culture, the cells were harvested by centrifugation and washed twice with PBS containing 0.1% BSA (FACS buffer). The cells were then dispersed in 600 μL of FACS buffer containing 0.01% human γ-globulin solution (Sigma, G2388), and incubated at 4° C. for 10 minutes for blocking of Fc receptors.
After that, the cell suspension was divided into three 180-μL aliquots in 1.5-mL tubes, the tubes were centrifuged, and the cell pellets were prepared for the reaction with antibodies. To the cell pellets, FITC-labeled antibody solutions separately diluted to appropriate concentrations in FACS buffer were added in a volume of 50 μL, and incubation was performed at 4° C. for 30 minutes. The antibodies used were CD86 antibody (Pharmingen; Cat#555657), CD54 antibody (Dako; Cat# F7143) and isotype control (Mouse IgG) antibody (Dako; Cat#X0927). After the 30-minute incubation, the cells were harvested by centrifugation and washed twice with FACS buffer. The cells harvested by centrifugation were dispersed in 200 μL of FACS buffer containing 0.625 μg/mL propidium iodide, and the expression levels of the cell surface antigens on 1×10^4 viable cells were measured by flow cytometry. Forward and side scatter gating was not used for the analysis, and the relative fluorescence intensity (RFI) was calculated from the measured mean fluorescence intensities (MFI) by the following formula. […]
When the viability of the non-treated control cells (vehicle treatment cells) was 90% or more, the test was considered valid. In the case where the cell viability at a particular sample concentration used in the test was lower than 50%, the data of the CD54 level at the concentration was excluded from the evaluation.
On the technique in general: A flow cytometer gives signals particle by particle.

“Also recorded” adds a separate entry of the source.

Consider “ELKLIFLHRLKRLRKRLKRK (Ac-ELKLIFLHRLKRLRKRLKRK-NH2) [OSK-1]”, for which the IL-1β production entry in assay [1] (LPS-primed THP-1 cells versus non-primed THP-1 cells, 16 hours) is reported as “induced the production of IL-1β only in the LPS-primed THP-1 cells”; in assay [1] (LPS-primed THP-1 cells, in the presence of caspase-1 inhibitor Z-YVAD-FMK 10 μM), “also inhibited by Z-YVAD-FMK”; in assay [1] (LPS-primed THP-1 cells, in the presence of cathepsin B inhibitor Ca-074-Me 10 μM), “inhibited by Ca-074-Me”. The “anti-Ang II antibody titer” value in assay [2] is reported as “increase in the anti-Ang II antibody titer was observed; also recorded: smaller than that in the Freund's adjuvant (FA) group, but comparable to that in the alum group”. For the same sequence, the “production of the cytokines (IL-1β, IL-18, TNFα and IL-6)” value in assay [3] is “induced the production of the cytokines in the LPS-primed RAW 264.7 cells in an OSK-1 concentration dependent manner”. The hair length result in assay [4] (0.5% OSK-1 group, Day 17, compared with 3% minoxidil group) was “almost comparable to those in the 3% minoxidil group”. Besides, in assay [4] (0.5% OSK-1 group, compared with 3% minoxidil group), the hair regrowth score result was “almost comparable to those in the 3% minoxidil group”. Also, in assay [4] (100 μL of 0.02%, 0.1% or 0.5% (w/v) solution on shaved dorsal skin once daily for 14 days), the hair growth result is on record as “promote hair growth in a concentration dependent manner”. Also, in assay [5], the “expression of CD54” value was “strongly induced; also recorded: comparable or superior to that of muramyl dipeptide (MDP); also recorded: more highly active for inducing CD54 expression than SR-07 and SR-08”. In addition, the “expression of CD86” value in assay [5] is reported as “strongly induced; also recorded: comparable or superior to that of muramyl dipeptide (MDP)”.

(Values after patent publication US10112978B2, “Peptide and use thereof” (OSAKA UNIVERSITY, priority 2014, dated 2018).)
